Source: PubChem BioAssay (NCI)
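In this assay, cells in 96-well plates receive the compound at five concentrations for 48 hours. Endpoints are linearly interpolated between the surrounding concentrations. Abbreviation: GI50, concentration required for 50% inhibition of growth. Definition used: TGI = concentration required for complete inhibition of growth.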

Columns and labels:
Experiment in all cases: NCI-60 cell line screen, 48 h
[1] = test system: SF-268 CNS
[2] = test system: HOP-92 NSCLC
[3] = test system: A549 NSCLC
[4] = test system: OVCAR-3 ovarian
[5] = test system: MOLT-4 leukemia
[6] = test system: HOP-62 NSCLC
[7] = test system: NCI-H226 lung
[8] = test system: SW-620 colon
[9] = test system: NCI-H522 lung
[10] = test system: ACHN renal

Structure (SMILES)	TGI [1] [µM]	TGI [2] [µM]	TGI [3] [µM]	TGI [4] [µM]	TGI [5] [µM]	TGI [6] [µM]	TGI [7] [µM]	TGI [8] [µM]	TGI [9] [µM]	GI50 [1] [µM]	GI50 [2] [µM]	GI50 [3] [µM]	GI50 [10] [µM]	TGI [10] [µM]	GI50 [4] [µM]	GI50 [7] [µM]	GI50 [8] [µM]	GI50 [9] [µM]	GI50 [6] [µM]	GI50 [5] [µM]
COc1cc2c3c(c1OCc1ccccc1)NCCC3NCC2 (stereo unspecified)	> 100	> 100	> 100	> 100	> 100	> 100	> 100	> 100	> 100											
Cc1[nH]c2ccccc2c1C1=CC(=O)C=CC1=O	27.4	26.3	63.9	4.6			30.9	23	3.28	13.1	13	21	3.63	12.5	2.16	15.6	4.55	1.66		
Cc1ccc(S(=O)(=O)NC(=O)C#CCOC2CCCCO2)cc1 (stereo unspecified)		> 100	> 100	> 100	> 100		> 100	> 100						> 100						
COC(=O)C1=C(C)N(NC(=O)c2cccc(Cl)c2)C(C)(O)C12CCOC2=O (stereo unspecified)	> 100		> 100	> 100	> 100	> 100	> 100	> 100	> 100					> 100						
CCOC(=O)/C(=C/c1ccc(Cl)cc1)N(CC)CC	> 100	> 100	> 100		> 100	> 100	> 100	> 100	> 100					> 100						
CC1OC(n2cc(I)c(=O)[nH]c2=O)C=CC1=O (stereo unspecified)	27.1	33.9	72.6	31.5	33.8	32.7	32.3	26.8						31.5						
O=C(c1ccncc1)N1CCN(C2=NS(=O)(=O)c3ccccc3N2c2ccccc2)CC1	> 100	21.4	> 100	> 100		32.3	42.4	57.1	67	8.37	4.07	20.6	11.1	53.6	32.1	17.1	15.5	5.98	8.06	
CC1=C2[C@@H](c3ccccc3)C3C=CC2(c2ccccc23)N(C(=O)Nc2cccc3ccccc23)C1=O (stereo partly specified)	> 100	> 100	> 100	> 100	> 100	> 100		> 100						> 100						
Cc1nn(-c2ccccc2)c(C)c1/C=N/N1CCN(Cc2ccccc2)CC1	> 100		> 100		55.2	74.4	96.2	> 100	> 100	38		> 100	52.4	> 100		27.8	> 100	78.5	16.3	26.8
CCCCCCCCCCCCCC(=O)OC1C(CO)OC(=O)C1O (stereo unspecified)	> 100	95.9	> 100	> 100	> 100	> 100		> 100						> 100						
CCCCCCCCCCNC(=S)OCCCC	58.7	41.1	73.6		32.6	68.7		35.2	42.4					69.3						
CNc1ccc(C(=O)CC(O)CCC(C)C2OC(=O)CC(O)CC(=O)CC(O)CC(O)CC(O)CC(O)CC3(O)CC(O)C(C(=O)NCCc4ccccn4)C(CC(OC4OC(C)C(O)C(N)C4O)/C=C/C=C/C=C/C=C\C=C/C=C/C=C/C2C)O3)cc1 (stereo unspecified)	0.439	19.2		2.16	> 50		9.71	> 50	> 50	0.141	1.48		0.841	1.53	0.643	2.29	> 41.5	4.21		0.207
O=C(CC(=O)c1cccc([N+](=O)[O-])c1)C(=O)Nc1nc([N+](=O)[O-])cs1	> 100	> 100	> 100	> 100	> 100	> 100	> 100	> 100	> 100											
O=C1C(Cl)=C(Nc2cccc(O)c2)C(=O)N1c1ccc(Cl)cc1Cl	> 100		> 100		33.1	> 100		38.3	32.9	28.4		46.3	30.6	> 100			17.3	13.8	32.8	7.32
COc1ccc(C(=O)c2cc(OC)c(OC)c(OC)c2)cc1/C=C/C(=O)c1ccc2c(c1)OCO2	> 100	35.4	> 100	7.24	> 100	19.5	6.32	3.77		2.95	12	4.39			1.96	2.23	0.396		4.4	1.61
N#CC(C#N)=Cc1ccc(Oc2ccccc2)cc1	> 69.5		> 100	> 100	98.4	> 100	> 72.8	72.3	61.6					> 31.6						
COc1cccc(N2C(=O)[C@H]3[C@H]4CC(C(C)(C)C)CC[C@H]4c4c([nH]c5ccccc45)[C@H]3C2=O)c1 (stereo partly specified)	54.7		29	36.2	25.1	31.7	40.3	41	45.7											
COc1ccc2cc(C(=O)/C=C/c3ccco3)ccc2c1	45.5	> 100	> 100	> 100	> 100			> 100	58.5	20	62.6	31.8	29.4	79.1	44		35	19.7		41.7
CO[C@]12CCC(=O)N1C=Cc1c2[nH]c2ccccc12	> 100	> 100	> 100	> 100	> 100	> 100	> 100	> 100						> 100						
Cc1cc2c(=O)c3ccccc3oc2c(C#N)c1C	> 100	> 100	> 100		> 100	> 100		> 100						> 100						
O=C(Nc1cccc(-n2cc(-c3ccncc3)c(-c3ccc(O)c(Cl)c3)n2)c1)c1ccc(N2CCOCC2)c(C(F)(F)F)c1	> 50	3.81	> 50		> 50	> 50	> 50	> 50	> 50	> 50	0.994	2	2.18	> 50		> 50	4.05	2.22	3.07	2.33
COc1ccc2c([nH]c3cc(O)c(C)cc32)c1CC=C(C)C	> 25	> 25	> 25	12.4	15.9		> 25	20.7	17.3	9.66	8.03	8.47	9.35	> 25			6.75	5.92		4.94
N=C(N)c1ccc(-c2ccc(-c3ccc(Cl)c(Cl)c3)o2)nc1	4.73	2.97					49.9		4.36	2.08	1.41		1.74	3.22		15.4		1.86		
CCOC1=C2C(C)(CCC3[C@@]4(C)C=CC(=O)C(C)(C)C4CC(O)[C@@]23C)C(c2ccoc2)C1=O (stereo partly specified)	> 100	41.9	98.6	33.4	40.4	36.8	55.4	46.2						37.4						
N#C/C(=C\c1ccc([N+](=O)[O-])s1)c1nc2cc(Br)ccc2s1	> 100	0.451	> 100	0.733	> 35.5	1.68	0.335	1.06	0.539	0.468	0.175	0.509			0.248	0.152	0.244	0.206	0.314	0.335
COc1cc(CCNc2nc3cc(N)cc(N)c3nc2-c2ccccc2)cc(OC)c1	3.72	3.44	14.9	2.35	2.67	9.35	4.87	4.71		1.74	1.61	3.64	1.8	3.27	1.08	2.16	2.28		2.95	0.941
CN1CCc2cc(O)c3cc2C1Cc1ccc(cc1)Oc1cc(ccc1O)CC1c2c(cc4c(c2O3)OCO4)CCN1C (stereo unspecified)	> 100		> 100	> 100	85.4		47.7							> 100						
